Numbers after ± are expanded uncertainties.
Columns and labels:
[1] = 100 kPa, Liquid; for speed of sound: Frequency=3 MHz, Linear variable-path acoustic interferometer; for mass density: Pycnometric method
[2] = xn = mol fraction of the nth substance listed; conditions: 100 kPa, Liquid, x1 = 1; for speed of sound: Frequency=3 MHz, Linear variable-path acoustic interferometer; for mass density: Pycnometric method

Compound: CC#N [acetonitrile]
- speed of sound ([1]; 293.15 K): 1304.7 ± 1.7 m/s
- mass density ([1]; 293.15 K): 782.12 ± 1 kg/m3
- speed of sound ([1]; 298.15 K): 1282.8 ± 1.6 m/s
- mass density ([1]; 298.15 K): 776.82 ± 1 kg/m3
- speed of sound ([1]; 303.15 K): 1263.9 ± 1.6 m/s
- mass density ([1]; 303.15 K): 771.52 ± 1 kg/m3
- speed of sound ([1]; 308.15 K): 1245 ± 1.6 m/s
- mass density ([1]; 308.15 K): 766.21 ± 1 kg/m3
- speed of sound ([1]; 313.15 K): 1226.5 ± 1.6 m/s
- mass density ([1]; 313.15 K): 760.9 ± 1 kg/m3
- speed of sound ([1]; 318.15 K): 1207.9 ± 1.6 m/s
- mass density ([1]; 318.15 K): 755.59 ± 1 kg/m3

Compound: CC#N [acetonitrile] + C=C(C)C(=O)OC
- speed of sound ([2]; 293.15 K): 1304.7 ± 1.7 m/s
- mass density ([2]; 293.15 K): 782.12 ± 1 kg/m3
- speed of sound ([2]; 298.15 K): 1282.8 ± 1.6 m/s
- mass density ([2]; 298.15 K): 776.82 ± 1 kg/m3
- speed of sound ([2]; 303.15 K): 1263.9 ± 1.6 m/s
- mass density ([2]; 303.15 K): 771.52 ± 1 kg/m3
- speed of sound ([2]; 308.15 K): 1245 ± 1.6 m/s
- mass density ([2]; 308.15 K): 766.21 ± 1 kg/m3
- speed of sound ([2]; 313.15 K): 1226.5 ± 1.6 m/s
- mass density ([2]; 313.15 K): 760.9 ± 1 kg/m3
- speed of sound ([2]; 318.15 K): 1207.9 ± 1.6 m/s
- mass density ([2]; 318.15 K): 755.59 ± 1 kg/m3

Compound: CC#N [acetonitrile] + C=C(C)C(=O)OCC
- speed of sound ([2]; 293.15 K): 1304.7 ± 1.7 m/s
- mass density ([2]; 293.15 K): 782.12 ± 1 kg/m3
- speed of sound ([2]; 298.15 K): 1282.8 ± 1.6 m/s
- mass density ([2]; 298.15 K): 776.82 ± 1 kg/m3
- speed of sound ([2]; 303.15 K): 1263.9 ± 1.6 m/s
- mass density ([2]; 303.15 K): 771.52 ± 1 kg/m3
- speed of sound ([2]; 308.15 K): 1245 ± 1.6 m/s
- mass density ([2]; 308.15 K): 766.21 ± 1 kg/m3
- speed of sound ([2]; 313.15 K): 1226.5 ± 1.6 m/s
- mass density ([2]; 313.15 K): 760.9 ± 1 kg/m3
- speed of sound ([2]; 318.15 K): 1207.9 ± 1.6 m/s
- mass density ([2]; 318.15 K): 755.59 ± 1 kg/m3

Compound: CC#N [acetonitrile] + C=C(C)C(=O)OCCCC
- speed of sound ([2]; 293.15 K): 1304.7 ± 1.7 m/s
- mass density ([2]; 293.15 K): 782.12 ± 1 kg/m3
- speed of sound ([2]; 298.15 K): 1282.8 ± 1.6 m/s
- mass density ([2]; 298.15 K): 776.82 ± 1 kg/m3
- speed of sound ([2]; 303.15 K): 1263.9 ± 1.6 m/s
- mass density ([2]; 303.15 K): 771.52 ± 1 kg/m3
- speed of sound ([2]; 308.15 K): 1245 ± 1.6 m/s
- mass density ([2]; 308.15 K): 766.21 ± 1 kg/m3
- speed of sound ([2]; 313.15 K): 1226.5 ± 1.6 m/s
- mass density ([2]; 313.15 K): 760.9 ± 1 kg/m3
- speed of sound ([2]; 318.15 K): 1207.9 ± 1.6 m/s
- mass density ([2]; 318.15 K): 755.59 ± 1 kg/m3

Compound: C=C(C)C(=O)OCCCC [butyl 2-methyl-2-propenoate]
- speed of sound ([1]; 293.15 K): 1241.7 ± 1.7 m/s
- mass density ([1]; 293.15 K): 895.19 ± 1 kg/m3
- speed of sound ([1]; 298.15 K): 1222.1 ± 1.7 m/s
- mass density ([1]; 298.15 K): 890.48 ± 1 kg/m3
- speed of sound ([1]; 303.15 K): 1202.4 ± 1.7 m/s
- mass density ([1]; 303.15 K): 885.78 ± 1 kg/m3
- speed of sound ([1]; 308.15 K): 1183 ± 1.7 m/s
- mass density ([1]; 308.15 K): 881.07 ± 1 kg/m3
- speed of sound ([1]; 313.15 K): 1163.8 ± 1.7 m/s
- mass density ([1]; 313.15 K): 876.35 ± 1 kg/m3
- speed of sound ([1]; 318.15 K): 1145.7 ± 1.7 m/s
- mass density ([1]; 318.15 K): 871.64 ± 1 kg/m3

Compound: C=C(C)C(=O)OCC [ethyl 2-methylpropenoate]
- speed of sound ([1]; 293.15 K): 1196.8 ± 1.6 m/s
- mass density ([1]; 293.15 K): 912.3 ± 1 kg/m3
- speed of sound ([1]; 298.15 K): 1176.9 ± 1.6 m/s
- mass density ([1]; 298.15 K): 907.18 ± 1 kg/m3
- speed of sound ([1]; 303.15 K): 1157.6 ± 1.6 m/s
- mass density ([1]; 303.15 K): 902.06 ± 1 kg/m3
- speed of sound ([1]; 308.15 K): 1139.4 ± 1.6 m/s
- mass density ([1]; 308.15 K): 896.94 ± 1 kg/m3
- speed of sound ([1]; 313.15 K): 1121.5 ± 1.6 m/s
- mass density ([1]; 313.15 K): 891.83 ± 1 kg/m3
- speed of sound ([1]; 318.15 K): 1104.6 ± 1.6 m/s
- mass density ([1]; 318.15 K): 886.71 ± 1 kg/m3

Compound: C=C(C)C(=O)OC [methyl methacrylate]
- speed of sound ([1]; 293.15 K): 1200.5 ± 1.6 m/s
- mass density ([1]; 293.15 K): 943.38 ± 1 kg/m3
- speed of sound ([1]; 298.15 K): 1183.6 ± 1.6 m/s
- mass density ([1]; 298.15 K): 937.64 ± 1 kg/m3
- speed of sound ([1]; 303.15 K): 1168.5 ± 1.6 m/s
- mass density ([1]; 303.15 K): 931.9 ± 1 kg/m3
- speed of sound ([1]; 308.15 K): 1152.6 ± 1.6 m/s
- mass density ([1]; 308.15 K): 926.16 ± 1 kg/m3
- speed of sound ([1]; 313.15 K): 1135.4 ± 1.6 m/s
- mass density ([1]; 313.15 K): 920.42 ± 1 kg/m3
- speed of sound ([1]; 318.15 K): 1118.3 ± 1.6 m/s
- mass density ([1]; 318.15 K): 914.67 ± 1 kg/m3

Reference: the NIST ThermoML archive (doi:10.1016/j.jct.2018.03.013)
